This is an account of results in PubChem BioAssay AID1996.

Converted amounts (≈) assume the structure as drawn.

For this data set the following is noted: buffer; pH 7.4; 200.0 µM.
As a reminder, the solubility (kinetic) is solubility judged after dilution from a stock solution rather than from solid. As to `O=C(CNC(=O)c1ccccc1F)N/N=C/c1cccnc1`, the kinetic solubility is more than 45 µg/mL.

In turn, `CCOC(=O)N1CCc2[nH]c3ccc(C)cc3c2C1` registered a solubility (kinetic) of 15.9 µg/mL (≈ 61.6 µM).

With `Cc1cc(Br)ccc1OCCN1CCCC1.O=C(O)C(=O)O`, the solubility (kinetic) was more than 56.1 µg/mL.

The molecule `Br.Cc1ccc(C2=CSC3=NCCN23)cc1` gave a solubility (kinetic) of 43.2 µg/mL.

`CC(=O)Nc1cccc2c1C(=O)N(c1cccc(OC(C)=O)c1)C2=O` had a solubility (kinetic) of more than 50.7 µg/mL.

With `N#CCN1CCCC(C(N)=O)C1` (configuration not stated), the solubility (kinetic) came out at 19.6 µg/mL (≈ 117 µM).

`CCc1cccc(C)c1NC(=O)C1CCCN(S(C)(=O)=O)C1` (configuration not stated): the kinetic solubility was more than 48.7 µg/mL.

Take `CCN(CCO)c1nc(N2CCCCC2)c2cnn(C)c2n1`: the kinetic solubility was more than 45.7 µg/mL.

For `O=C(Nc1ccc(-c2ccccc2)cc1)c1ccco1`, the kinetic solubility was found to be 22.4 µg/mL (≈ 85.1 µM).

Take `O=c1c2cc(Br)ccc2[nH]c(=S)n1Cc1ccccc1`: the solubility (kinetic) is less than 0.4 µg/mL.

Regarding `Cc1onc(-c2ccccc2)c1C(=O)Nc1nncs1`, the solubility (kinetic) is more than 42.9 µg/mL.

For the molecule `CCCc1nc2ccc(N)cc2c(=O)n1Cc1ccccc1Cl`, the solubility (kinetic) is 13 µg/mL (≈ 39.7 µM).

On to `N#CCn1c(Cc2ccccc2)nc2ccccc2c1=O`, for which the kinetic solubility was more than 41.3 µg/mL.

Regarding `Cc1ccc(CCC(=O)Nc2ccc(Br)cc2)o1`, the kinetic solubility was 4.2 µg/mL (≈ 13.6 µM).

In turn, `CCCCNC(=O)c1ccc(CS(=O)(=O)Cc2ccccc2F)o1` yielded a solubility (kinetic) of more than 53 µg/mL.

Take `CCN(C(=O)CSc1nc(C)cc(=O)[nH]1)C1CCCCC1`: the kinetic solubility was more than 46.4 µg/mL.

Regarding `COc1ccc(-n2nc3c(c2NC(C)=O)CS(=O)(=O)C3)cc1`, the kinetic solubility was more than 48.2 µg/mL.

The molecule `O=C(Cc1ccccc1)NCC(=O)N1CCCC1` gave a kinetic solubility of more than 36.9 µg/mL.

`Nc1nc2c(F)c(F)c(F)cc2s1` had a solubility (kinetic) of 21.7 µg/mL (≈ 106 µM).

Consider `O=C(COC(=O)[C@H](Cc1ccccc1)NC(=O)c1ccco1)Nc1ccccc1`, for which the kinetic solubility is more than 58.9 µg/mL.

Molecule `COc1ccc([N+](=O)[O-])cc1NC(=O)CCSCCc1ccccn1` displayed a kinetic solubility of more than 54.2 µg/mL.

For `CC(C)(C)C(=O)/C=c1\[nH]c(=O)/c(=C\c2ccccc2F)s1`, the kinetic solubility is less than 0.7 µg/mL.

In turn, `O=C(NC(=O)c1ccccc1)Nc1ccccc1O` yielded a solubility (kinetic) of 2.1 µg/mL (≈ 8.19 µM).

For the molecule `CC1CCN(Cc2cc(=O)oc3cc4c(cc23)CCCC4)CC1`, the kinetic solubility was less than 0.7 µg/mL.

The molecule `CC(OC(=O)C1CC1)C(=O)Nc1cccc(S(=O)(=O)N2CCOCC2)c1` (configuration not stated) returned a solubility (kinetic) of more than 57.4 µg/mL.

For the molecule `CC(C)(C)c1ccccc1NC(=O)C1=COCCO1`, the kinetic solubility is more than 39.2 µg/mL.

Take `CCCn1c(=O)c2c(nc3n2CCN3Cc2ccco2)n(C)c1=O`: the kinetic solubility is more than 49.4 µg/mL.

In the case of `COCC(C)NC(=O)c1ccc2c(c1)S(=O)(=O)c1ccccc1C2=O` (configuration not stated), the kinetic solubility is more than 53.9 µg/mL.

Take `O=C(C#Cc1ccccc1)Nc1cccc(F)c1`: the kinetic solubility amounted to 8.7 µg/mL (≈ 36.4 µM).

`O=C(Nc1cc2c3c(c1)CC(=O)N3CCC2)c1cccc(F)c1` gave a kinetic solubility of 10.5 µg/mL (≈ 33.8 µM).

`O=C(CCCN1CCC2(CC1)C(=O)NCN2c1ccccc1)c1ccc(F)cc1`: the solubility (kinetic) was found to be 50.1 µg/mL (≈ 127 µM). This solubility kinetic lies about 4.8-fold higher than the previous one.

Consider `O=C(CSc1nc2ccc([N+](=O)[O-])cc2s1)NCC1CCCO1` (configuration not stated), for which the solubility (kinetic) is 50.6 µg/mL (≈ 143 µM).

`O=S(=O)(NC1CCCCCC1)c1cccc(Cl)c1`: the solubility (kinetic) was 40.6 µg/mL (≈ 141 µM).

As to `N#Cc1ccccc1/C=C/C(=O)N1CCOCC1`, the solubility (kinetic) was more than 36.3 µg/mL.

Molecule `CCOc1ccc(C(=O)N2CCN(c3ccccc3)CC2)cc1` yielded a solubility (kinetic) of 46.5 µg/mL (≈ 150 µM).

`COc1ccccc1N1CCN(C2CCC(C)CC2)CC1` (configuration not stated) had a solubility (kinetic) of 31.7 µg/mL (≈ 110 µM). This solubility kinetic and that of the molecule before are within 1.5-fold of each other.

Consider `C=CCN1CCN(C(=O)c2cc3c(s2)CCCC3)CC1`, for which the solubility (kinetic) is more than 43.6 µg/mL.

In turn, `CCCC(=O)N1CCN(Cc2nc3cc([N+](=O)[O-])ccc3n2C)CC1` came in with a solubility (kinetic) of more than 51.8 µg/mL.

The molecule `N/C(=N\S(=O)(=O)c1ccc(Cl)cc1)N1CCOCC1` gave a solubility (kinetic) of more than 45.6 µg/mL.

Molecule `O=C(NC1(C(F)(F)F)OCCO1)c1ccc(F)cc1` displayed a kinetic solubility of 32.9 µg/mL (≈ 118 µM).

`CCOc1ccc2nc(N(CCN(C)C)C(=O)c3cc4ccccc4cc3OC)sc2c1.Cl`: the kinetic solubility was determined as 4.2 µg/mL.

Turning to `Cc1[nH]c(=O)c(S(=O)(=O)c2ccccc2)c(C)c1Cl`, the solubility (kinetic) was 44.2 µg/mL (≈ 148 µM).

`CC(=O)Nc1ccc(S(=O)(=O)Nc2ccc(N3CCCCC3)cc2)cc1` returned a solubility (kinetic) of 51.9 µg/mL (≈ 139 µM).

Consider `Cc1ccc(-c2cc(N)nc(-c3ccccc3)c2)cc1`, for which the solubility (kinetic) was less than 0.3 µg/mL.

For the molecule `Cc1cccc(C)c1NC(=O)c1cccc(C(=O)Nc2c(C)cccc2C)n1`, the kinetic solubility was determined as 27.7 µg/mL (≈ 74.2 µM).

Regarding `O=C(COC(=O)c1cccc(Cl)c1)Nc1ccc2[nH]c(=O)[nH]c2c1`, the kinetic solubility amounted to 0.8 µg/mL (≈ 2.31 µM).

`Cc1cccc(OCC(=O)OCC(=O)Nc2sccc2C(N)=O)c1` showed a kinetic solubility of 44.2 µg/mL (≈ 127 µM).

In turn, `CCOc1ncccc1-c1nc(-c2cccs2)no1` had a solubility (kinetic) of 1.8 µg/mL (≈ 6.59 µM).

Turning to `COc1ccc(COC(=O)Nc2c(SC)nsc2SC)cc1`, the solubility (kinetic) is 1 µg/mL (≈ 2.81 µM).

`CCCN(CCC)C(=O)c1cc2c(=O)n3cccc(C)c3nc2s1` yielded a kinetic solubility of 34.7 µg/mL (≈ 101 µM).

With `O=C(CN1C(=O)C2CCCCC2C1=O)OCC(=O)c1ccc(F)cc1` (configuration not stated), the kinetic solubility came out at 49.5 µg/mL (≈ 143 µM).

`COc1ccccc1CNC(=O)COC(=O)c1cc(=O)c2ccccc2o1` returned a solubility (kinetic) of more than 55.1 µg/mL.
